Assay [1] deals with T1, bovine luteinizing hormone receptor (bLHR) (Bos taurus, UniProt Q28005).
T1 construct: Full-length cDNAs encoding the LHRs of rat (r) and bovine (b) origin; expressed in transfected cells; host or cells: HEK293T, transient transfection with pcDNA3.1-bLHR
In words: Intracellular cAMP in HEK293T cells transiently expressing bLHR, induced by bLH. The following applies: 500 ng/ml bLH, 1 h post-induction, bLHR expressed, vs non-induced cells. The format is cell-based. As to the method: HEK293T cells were transiently transfected for constitutive bLHR or rLHR expression. 48 hours post-transfection the cells were induced by the addition of 500 ng/ml bLH. The intracellular cAMP-levels were determined 1 h post-induction. […] (□) no bLH, (▪) 500 ng/mL bLH.
Full-length cDNAs encoding the LHRs of rat (r) and bovine (b) origin were cloned under control of the strong constitutive human cytomegalovirus promoter (PCMV) as previously described [Kawate N, Tamada H, Inaba T, Sawada T, Journal of Reproduction and Development 2002; 48:8; Ulaner G A, Chuang J, Lin W, Woodbury D, Myers R V, Moyle W R, J Endocrinol 1999; 163:289-97]. The expression vectors were transiently transfected into HEK293T cells. The functionality of the expressed LHRs was determined 48 hours post-transfection by assaying the intracellular cAMP increase in response to the presence of bLH (FIG. 7). […] However, when the rLHR was expressed the detected cAMP-level increased to 29-fold level of the non-induced cells. […]
The intracellular cAMP production of cells was quantified using the cAMP Fluorescence Polarization (FP) Biotrak Immunoassay System (GE Healthcare Bio-Sciences GmbH, Otelfingen, Switzerland, Cat No. RPN3595) according to the manufacturer's protocol. The expression of firefly luciferase was determined with the Tropix Luciferase Assay Kit (Applied Biosystems, Bedford, USA, Cat No. BC100L). […]

The target in the next assay is rLHR (Rattus norvegicus, UniProt P16235). Put plainly: PCRE dependent SEAP expression over time in HEK293T expressing rLHR or bLHR. It counts as cell-based. Also noted: Full-length cDNAs encoding the LHRs of rat (r) and bovine (b) origin; expressed in transfected cells; host or cells: HEK293T, transient transfection with pLEN-rLHR. The following applies: 500 ng/mL bLH, maximal SEAP expression. As to the method: HEK293T cells were transiently co-transfected for PCRE dependent SEAP expression and constitutive bLHR- or rLHR expression or with the empty vector pcDNA3.1(+). 24 hours post-transfection the cells were induced by addition of 500 ng/mL bLH or cultivated non-induced. […] (▴) rLHR+bLH; (▪) bLHR+bLH; (×) rLHR-bLH; (♦) bLHR-bLH;
Functional expression of LHRs on the cell surface results in the stimulation of PKA and an increase of intracellular cAMP in response to bLH. It was evaluated whether the activated LHR-signaling may induce a PKA-responsive promoter. […] 24 hours post-transfection the cells were induced by bLH and the SEAP expression was determined over time. […] In comparing rLHR- and bLHR-expressing cells a 3-fold increase in maximal SEAP expression in response to bLH of the rLHR over the bLHR was detected. […]
The intracellular cAMP production of cells was quantified using the cAMP Fluorescence Polarization (FP) Biotrak Immunoassay System (GE Healthcare Bio-Sciences GmbH, Otelfingen, Switzerland, Cat No. RPN3595) according to the manufacturer's protocol. The expression of firefly luciferase was determined with the Tropix Luciferase Assay Kit (Applied Biosystems, Bedford, USA, Cat No. BC100L). […] Enhanced YFP-expression was detected by fluorescence microscopy (Leica Microsystems, Wetzlar, Germany)

Chain of rLHR (P16235 27-700): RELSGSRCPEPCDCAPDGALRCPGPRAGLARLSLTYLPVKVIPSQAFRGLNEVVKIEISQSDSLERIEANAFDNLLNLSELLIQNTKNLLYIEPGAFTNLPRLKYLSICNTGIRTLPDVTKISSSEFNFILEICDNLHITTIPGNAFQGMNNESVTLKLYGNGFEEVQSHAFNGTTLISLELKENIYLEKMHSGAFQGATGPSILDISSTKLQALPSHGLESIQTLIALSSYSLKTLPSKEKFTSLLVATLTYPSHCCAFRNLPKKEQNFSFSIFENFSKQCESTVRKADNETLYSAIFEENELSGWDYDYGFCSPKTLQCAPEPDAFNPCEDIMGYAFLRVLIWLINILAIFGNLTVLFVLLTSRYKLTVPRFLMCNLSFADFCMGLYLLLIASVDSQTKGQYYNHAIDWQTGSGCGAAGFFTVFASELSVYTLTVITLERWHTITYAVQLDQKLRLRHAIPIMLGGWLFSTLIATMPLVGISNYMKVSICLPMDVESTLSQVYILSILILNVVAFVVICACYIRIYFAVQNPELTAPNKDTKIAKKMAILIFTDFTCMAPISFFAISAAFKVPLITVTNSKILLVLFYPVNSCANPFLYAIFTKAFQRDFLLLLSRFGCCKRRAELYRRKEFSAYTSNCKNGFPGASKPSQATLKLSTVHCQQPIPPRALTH
T1 sequence (Q28005 27-701): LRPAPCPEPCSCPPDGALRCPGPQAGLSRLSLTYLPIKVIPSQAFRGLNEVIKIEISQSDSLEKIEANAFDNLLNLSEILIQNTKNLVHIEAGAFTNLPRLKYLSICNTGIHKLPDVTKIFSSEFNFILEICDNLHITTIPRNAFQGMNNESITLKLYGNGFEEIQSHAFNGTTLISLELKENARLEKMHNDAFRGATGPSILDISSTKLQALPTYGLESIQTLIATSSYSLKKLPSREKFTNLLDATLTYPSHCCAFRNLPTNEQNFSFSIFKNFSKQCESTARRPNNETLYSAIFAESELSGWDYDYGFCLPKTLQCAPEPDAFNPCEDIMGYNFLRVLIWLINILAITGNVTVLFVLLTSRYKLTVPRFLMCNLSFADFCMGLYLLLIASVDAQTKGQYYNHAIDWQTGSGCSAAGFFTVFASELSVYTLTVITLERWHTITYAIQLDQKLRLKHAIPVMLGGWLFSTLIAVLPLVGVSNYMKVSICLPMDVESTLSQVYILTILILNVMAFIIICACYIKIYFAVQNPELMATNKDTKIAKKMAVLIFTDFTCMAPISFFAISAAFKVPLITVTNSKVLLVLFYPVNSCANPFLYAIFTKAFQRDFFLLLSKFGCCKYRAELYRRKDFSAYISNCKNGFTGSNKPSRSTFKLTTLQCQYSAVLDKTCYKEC

Take bovine luteinizing hormone [bLH]: the “increase in intracellular cAMP” value in assay [1] is given as 12 fold. The “SEAP production of rLHR-expressing cells relative to bLHR-expressing cells” value at rLHR was found to be 3 fold.

The values above are taken from patent publication US8506950B2, “Degradable microcapsules” (ETH Zurich, priority 2008, dated 2013).
